Measured values reported in patent US20230405063A1, “USE OF PROBIOTIC COMPONENT AND PHARMACEUTICAL COMPOSITION CONTAINING PROBIOTIC COMPONENT” (CHENGDU KUACHANGAOPU MEDICAL TECHNOLOGY CO., LTD., priority 2020, published 2023).

Columns and labels:
Type in all cases: in vivo
[1] = tested on: human pancreatic cancer cells (PANC-1); experiment: Tumor inhibition in PANC-1 tumor-bearing nude mice, probiotic component/gemcitabine (Example 7, Table 13); conditions: dosed once, 100 μl/mouse/time, 7th day, probiotic component = supernatant component of disrupted Saccharomyces cerevisiae
Text: The method for determining the effect of combined drug administration in animal experiments was Burgi method (Burgi Y. Pharmacology; Drug actions and reactions. […] The Burgi method was modified by Zhengjun JIN (Zhengjun JIN, Equal probability and curve and “Q50”, Journal of the Second Shanghai Medical College; 1981, 1, 75-86) with q calculated as: q=EA+B/(EA+EB-EA×EB). In the following examples of the present invention, the combinational pharmaceutical efficacies (drug efficacies) of drug A and drug B co-administration was determined by ratio q of actual pharmaceutical efficacy (drug efficacy)/theoretical pharmaceutical efficacy (drug efficacy) according to Zhengjun JIN method, as follows. […] The model animals were randomly divided into 13 groups, and the drugs were administered according to Table 13.

lung tumor cells (A549) = experiment: Tumor inhibition in A549 tumor-bearing nude mice, co-administration (Example 5, Table 7); conditions: dosed once, 7th day, probiotic component = heat-inactivated Saccharomyces boulardii
Text: (§1) The method for determining the effect of combined drug administration in animal experiments was Burgi method (Burgi Y. Pharmacology; Drug actions and reactions. Cancerres. 1978, 38(2), 284-285). The Burgi method was modified by Zhengjun JIN (Zhengjun JIN, Equal probability and curve and “Q50”, Journal of the Second Shanghai Medical College; 1981, 1, 75-86) with q calculated as: q=EA+B/(EA+EB−EA×EB). In the following examples of the present invention, the combinational pharmaceutical efficacies (drug efficacies) of drug A and drug B co-administration was determined by ratio q of actual pharmaceutical efficacy (drug efficacy)/theoretical pharmaceutical efficacy (drug efficacy) according to Zhengjun JIN method, as follows.
Nude mice were used as experimental subjects, and lung tumor cells (A549) were used as modeling cells, 1×10^5 cells/mouse were injected into the right axilla subcutaneously for transplantation tumor modeling, and the average tumor volume of successfully modeled nude mice was 153.7 mm^3. The model animals were randomly divided into 18 groups, and the drugs were administered according to the drug components and administration route in Table 7. Each group was dosed once with an injection volume of […]. Wherein, the probiotic component was heat-inactivated Saccharomyces boulardii, and the administration route of group 16 was intra-tumoral injection of probiotic component followed by intra-tumoral injection of 10% arginine about 2 hours later. On the 7th day after drug administration, the animals were euthanized, and after dissection, the tumor tissue was taken out to determine the tumor weight, and the tumor inhibition rate (r) was calculated relative to the negative control group. Further, the actual efficacy/expected efficacy ratio q of a drug could also be calculated according to the therapeutic effect (tumor inhibition rate).

[2] = tested on: human hepatoma cells (HepG2); experiment: Tumor inhibition in HepG2 tumor-bearing nude mice, probiotic component/lysine (Example 7, Table 12); conditions: dosed twice, interval 7 days, 7th day after final administration, probiotic component = supernatant component of disrupted Saccharomyces cerevisiae
Protocol: (§2) In the following examples of the present invention, the combinational pharmaceutical efficacies (drug efficacies) of drug A and drug B co-administration was determined by ratio q of actual pharmaceutical efficacy (drug efficacy)/theoretical pharmaceutical efficacy (drug efficacy) according to Zhengjun JIN method, as follows.
Nude mice were used as experimental subjects, and human hepatoma cells (HepG2) were used as modeling cells. […] The model animals were randomly divided into 13 groups, and the drugs were administered according to Table 12. […] Each group was dosed twice at an interval of 7 days with an injection volume of […]. On the 7th day after final administration, the animals were euthanized, and the tumor tissues were taken out after dissection to determine the tumor weight, and the tumor inhibition rate was calculated relative to the negative control group.

breast cancer 4T1 cells [3] = experiment: Extra-tumoral local administration in 4T1 tumor-bearing BALB/c mice, R7d/R21d (Example 11, Table 17); conditions: subaxillary intradermal (extra-tumoral), twice at 7-day interval, 120 μl/mouse/time; for R7 d (relative tumor proliferation rate): day 7 after last dose; for R21 d (relative tumor proliferation rate): day 21 after last dose
Protocol: (§3) V=0.5×a×b^2, wherein a and b represent the length and width of the local lesion, respectively; Volume of the local lesion (e.g. tumor):
(§4) Local lesion (e.g., tumor) proliferation rate (R)=TV/CV×100, wherein TV and CV are the local lesion volumes in the study group and negative control group, respectively;
as §2
BALB/c mice were used as experimental subjects, and breast cancer 4T1 cells were used as modeling cells. 0.25×10^5 cells/mouse were injected into the right axilla subcutaneously for transplantation tumor modeling. On the 5th day after modeling, the test animals with visually obvious tumors were randomly divided into 12 groups, having 10 animals in each group. […] In groups 1-11, on days 7 and 21 after the last dose the tumor volume (V7d, V21d) were measured, and the relative tumor proliferation rates (R7d, R21d) were calculated relative to the negative control group on days 7 and 21 after the dose, so that the short-term therapeutic effectiveness (100%−R7d) and the medium- and long-term therapeutic effectiveness (100%−R21d) could be calculated, respectively. Further, based on the short-term therapeutic effectiveness and the medium- and long-term therapeutic effectiveness, the actual/expected ratio for short-term pharmaceutical efficacies q7d and the actual/expected ratio for medium- and long-term pharmaceutical efficacies q21d were calculated respectively.

[4] = tested on: human liver cancer HepG2 cells; experiment: Tumor inhibition in HepG2 tumor-bearing nude mice (Example 2, Table 4); conditions: dosed once, 150 μl/mouse; for Tumor weight (x ± s): 7th day after administration; for Tumor inhibition rate r: 7th day, relative to negative control
Protocol: The tumor-bearing nude mice were widely used for drug studies on chemotherapy rather than immunotherapy in patients with solid tumors. Taking nude mice as experimental subjects, human liver cancer HepG2 cells were used as modeling cells, and 1×10^5 cells/mouse were injected into the right axilla subcutaneously for transplantation tumor modeling, and the average tumor volume of successfully modeled nude mice was 161.3 mm^3. The model animals were randomly divided into 17 groups. The drugs were administered according to the drug and dosing method in Table 4. Each group was dosed once with an injection volume of 150 μl/mouse. On the 7th day after drug administration, the animals were euthanized, and after dissection, the tumor tissue was taken out to determine the tumor weight, and the tumor inhibition rate (r) was calculated relative to the negative control group.

breast cancer 4T1 cells [5] = experiment: Short- and medium/long-term relative tumor proliferation rate in 4T1 tumor-bearing BALB/c mice (Example 10, Table 16); conditions: intratumoral injection, dosed twice at interval of 7 days, 100 μl/mouse/time
Text: as §3, §4, §1
BALB/c mice were used as experimental subjects, and breast cancer 4T1 cells were used as modeling cells. 0.5×10^6 cells/mouse were injected into the right axilla subcutaneously for transplantation tumor modeling, and the average tumor volume of successfully modeled nude mice was 107.4 mm^3. The model animals were randomly divided into 17 groups.
The drugs, formulated according to the method of Example 1, were administered according to Table 16. Each group was dosed twice with an interval of 7 days, and the injection volumes were 300 μl/mouse/time for groups 13 and 14, 100 μl/mouse/time for other groups. The drugs were administered by subaxillary administration of the right forelimb for group 15, and by intratumoral injection for other groups. Group 16 was administered sequentially (the first dose was aprobiotic semi-fluid-like component/cytotoxic drug/weak local acting compound, and the last dose was inactivated probiotics), while the other groups were administered with the same drug twice. On days 7 and 21 after the last dose, the tumor volumes of each group were measured (V7d, V21d), and the relative tumor proliferation rates (R7d, R21d) were calculated relative to the negative control group, respectively, so that the short-term therapeutic effectiveness (100%−R7d) and the medium- and long-term therapeutic effectiveness (100%−R21d) could be calculated, respectively.

breast cancer 4T1 cells [6] = experiment: Short-term tumor inhibition in 4T1 tumor-bearing BALB/c mice (Example 9, Table 14); conditions: dosed twice, 7th day after final administration
Text: as §1
BALB/c mice were used as experimental subjects, and breast cancer 4T1 cells were used as modeling cells. 0.5×10^6 cells/mouse were injected into the right axilla subcutaneously for transplantation tumor modeling, and the average tumor volume of successfully modeled nude mice was 160.1 mm^3. The model animals were randomly divided into 21 groups, and the drugs were administered by intravenous injection (series A) and intratumoral injection (series B) according to the drugs and doses in Table 14, respectively. All the drugs administered were aqueous liquids, which were formulated according to the method of Example 1. Each group was dosed twice. On the 7th day after final administration, the animals were euthanized, and the tumor tissues were taken out after dissection to determine the tumor weight, and the tumor inhibition rates rA and rB were calculated relative to the corresponding negative control groups in series A and series B.

[7] = intratumoral injection, '+' = arginine injected about 2 hours later
[8] = listed as 20% lysine, 20% lysine

Nc1ccn([C@@H]2O[C@H](CO)[C@@H](O)C2(F)F)c(=O)n1 [5% gemcitabine, gemcitabine]
Tumor inhibition rate [1]: 35.1%
Tumor weight (x ± s) [1]: 0.191 ± 0.077 g
Tumor inhibition rate ([1]; listed as 0.05% gemcitabine): 5.6%
Tumor inhibition rate ([1]; listed as 0.1% gemcitabine): 7.8%
Tumor inhibition rate ([1]; listed as […] gemcitabine): 30.4%
Tumor weight (x ± s) ([1]; listed as […] gemcitabine): 0.204 ± 0.103 g

N=C(N)NCCC[C@H](N)C(=O)O [10% arginine, arginine]
Tumor inhibition rate r (lung tumor cells (A549); [7]): 24.7%
Tumor weight (x ± s) (lung tumor cells (A549); [7]): 0.164 ± 0.061 g
Tumor inhibition rate r (lung tumor cells (A549); intravenous injection): 6.4%
Tumor weight (x ± s) (lung tumor cells (A549); intravenous injection): 0.196 ± 0.077 g

NCCCC[C@H](N)C(=O)O [25% lysine, lysine]
Tumor inhibition rate [2]: 54.1%
Tumor weight (x ± s) [2]: 0.109 ± 0.074 g
Tumor inhibition rate ([2]; 5% lysine): 11.3%
Tumor weight (x ± s) ([2]; 5% lysine): 0.211 ± 0.091 g
Tumor inhibition rate ([2]; listed as 1% lysine, 1% lysine): 5.2%
Tumor weight (x ± s) ([2]; listed as 1% lysine, 1% lysine): 0.226 ± 0.112 g
Tumor inhibition rate [2, 8]: 43.6%
Tumor weight (x ± s) [2, 8]: 0.134 ± 0.073 g
R7 d (relative tumor proliferation rate) (breast cancer 4T1 cells [3]): 96%
R21 d (relative tumor proliferation rate) (breast cancer 4T1 cells [3]): 102%

B1: interleukin-12 (protein, UniProt P29459 23-219; P29460 23-328, looked up)
Interleukin-12 subunit alpha: RNLPVATPDPGMFPCLHHSQNLLRAVSNMLQKARQTLEFYPCTSEEIDHEDITKDKTSTVEACLPLELTKNESCLNSRETSFITNGSCLASRKTSFMMALCLSSIYEDLKMYQVEFKTMNAKLLMDPKRQIFLDQNMLAVIDELMQALNFNSETVPQKSSLEEPDFYKTKIKLCILLHAFRIRAVTIDRVMSYLNAS
Interleukin-12 subunit beta: IWELKKDVYVVELDWYPDAPGEMVVLTCDTPEEDGITWTLDQSSEVLGSGKTLTIQVKEFGDAGQYTCHKGGEVLSHSLLLLHKKEDGIWSTDILKDQKEPKNKTFLRCEAKNYSGRFTCWWLTTISTDLTFSVKSSRGSSDPQGVTCGAATLSAERVRGDNKEYEYSVECQEDSACPAAEESLPIEVMVDAVHKLKYENYTSSFFIRDIIKPDPPKNLQLKPLKNSRQVEVSWEYPDTWSTPHSYFSLTFCVQVQGKSKREKKDRVFTDKTSATVICRKNASISVRAQDRYYSSSWSEWASVPCS
notes: immunoenhancement control
Tumor weight (x ± s) ([4]; intratumoral injection): 0.241 ± 0.111 g
Tumor inhibition rate r ([4]; intratumoral injection): 8.1%
Tumor weight (x ± s) ([4]; intravenous injection): 0.230 ± 0.102 g
Tumor inhibition rate r ([4]; intravenous injection): 4.7%
R7 d (relative tumor proliferation rate) (breast cancer 4T1 cells [3]): 99%
R21 d (relative tumor proliferation rate) (breast cancer 4T1 cells [3]): 97%
relative tumor proliferation rate R7 d (breast cancer 4T1 cells [5]; day 7 after last dose): 95%
relative tumor proliferation rate R21 d (breast cancer 4T1 cells [5]; day 21 after last dose): 96%
tumor inhibition rate rA (breast cancer 4T1 cells [6]; series A: intravenous injection): 5.3%
tumor inhibition rate rB (breast cancer 4T1 cells [6]; series B: intratumoral injection): 4.6%
